Our source for the Activity and inhibition values is ChEMBL document CHEMBL5528002, “Identification of selective 5-LOX and FLAP inhibitors as novel anti-inflammatory agents by ligand-based virtual screening” (Eur J Med Chem, 2024).

Test [1] deals with Macrophage cell line. The experiment in a line: Effect on lipid mediator formation in human M2-like phenotype MDM cells by measuring RvD1 formation at 10 uM pre-incubated for 15 mins followed by SACM stimulation and measured after 90 mins by UPLC-MS/MS analysis (reference value: 5 +/- 2 pg/ml). The format is functional. The following applies: time 105 min, 1.75 h.
The subject of test [2] is Macrophage cell line. The test is described as follows: Effect on lipid mediator formation in human M2-like phenotype MDM cells by measuring PGE2 formation at 10 uM pre-incubated for 15 mins followed by SACM stimulation and measured after 90 mins by UPLC-MS/MS analysis relative to control. The format is functional. The following applies: time 105 min, 1.75 h.
Test [3] deals with Macrophage cell line. The experiment in a line: Effect on lipid mediator formation in human M2-like phenotype MDM cells by measuring PGF2alpha formation at 10 uM pre-incubated for 15 mins followed by SACM stimulation and measured after 90 mins by UPLC-MS/MS analysis (reference value: 72 +/- 21 pg/ml). Format: functional. The settings on record: time 105 min, 1.75 h.
Test [4] concerns Macrophage cell line. The experiment in a line: Effect on lipid mediator formation in human M1-like phenotype MDM cells by measuring 5,15-diHETE formation at 10 uM pre-incubated for 15 mins followed by SACM stimulation and measured after 90 mins by UPLC-MS/MS analysis relative to control. The format is functional. The following applies: time 105 min, 1.75 h.
For test [5], the system named is Macrophage cell line. The experiment in a line: Effect on lipid mediator formation in human M1-like phenotype MDM cells by measuring 15-HEPE formation at 10 uM pre-incubated for 15 mins followed by SACM stimulation and measured after 90 mins by UPLC-MS/MS analysis relative to control. The format is functional. The following applies: time 105 min, 1.75 h.
Test [6] concerns Macrophage cell line. The test is described as follows: Effect on lipid mediator formation in human M2-like phenotype MDM cells by measuring 7-HDHA formation at 10 uM pre-incubated for 15 mins followed by SACM stimulation and measured after 90 mins by UPLC-MS/MS analysis (reference value: 315 +/- 55 pg/ml). Format: functional. The settings on record: time 105 min, 1.75 h.
For test [7], the system named is Macrophage cell line. The test is described as follows: Effect on lipid mediator formation in human M1-like phenotype MDM cells by measuring t-LTB4 formation at 10 uM pre-incubated for 15 mins followed by SACM stimulation and measured after 90 mins by UPLC-MS/MS analysis (reference value: 338 +/- 102 pg/ml). The format is functional. The settings on record: time 105 min, 1.75 h.

Test [8] concerns Macrophage cell line. The test is described as follows: Effect on lipid mediator formation in human M1-like phenotype MDM cells by measuring 5S,6R-diHETE formation at 10 uM pre-incubated for 15 mins followed by SACM stimulation and measured after 90 mins by UPLC-MS/MS analysis (reference value: 226 +/- 78 pg/ml). The settings on record: time 105 min, 1.75 h. The format is functional.

Test [9] relates to Macrophage cell line. The test is described as follows: Effect on lipid mediator formation in human M2-like phenotype MDM cells by measuring LTB4 formation at 10 uM pre-incubated for 15 mins followed by SACM stimulation and measured after 90 mins by UPLC-MS/MS analysis relative to control. Format: functional. The following applies: time 105 min, 1.75 h.
Test [10] has as its system Macrophage cell line. The test is described as follows: Effect on lipid mediator formation in human M2-like phenotype MDM cells by measuring PDX1 formation at 10 uM pre-incubated for 15 mins followed by SACM stimulation and measured after 90 mins by UPLC-MS/MS analysis relative to control. The format is functional. The settings on record: time 105 min, 1.75 h.
The test system of test [11] is Macrophage cell line. The test is described as follows: Effect on lipid mediator formation in human M2-like phenotype MDM cells by measuring 5-HETE formation at 10 uM pre-incubated for 15 mins followed by SACM stimulation and measured after 90 mins by UPLC-MS/MS analysis relative to control. The format is functional. The following applies: time 105 min, 1.75 h.
In test [12] the test system is Macrophage cell line. The test is described as follows: Effect on lipid mediator formation in human M1-like phenotype MDM cells by measuring 7-HDHA formation at 10 uM pre-incubated for 15 mins followed by SACM stimulation and measured after 90 mins by UPLC-MS/MS analysis (reference value: 118 +/- 14 pg/ml). Format: functional. The following applies: time 105 min, 1.75 h.

Test [13] deals with Macrophage cell line. The test is described as follows: Effect on lipid mediator formation in human M2-like phenotype MDM cells by measuring 5,15-diHETE formation at 10 uM pre-incubated for 15 mins followed by SACM stimulation and measured after 90 mins by UPLC-MS/MS analysis relative to control. Format: functional. The following applies: time 105 min, 1.75 h.
Test [14] relates to Macrophage cell line. The test is described as follows: Effect on lipid mediator formation in human M1-like phenotype MDM cells by measuring 15-HETE formation at 10 uM pre-incubated for 15 mins followed by SACM stimulation and measured after 90 mins by UPLC-MS/MS analysis (reference value: 910 +/- 229 pg/ml). The format is functional. The settings on record: time 105 min, 1.75 h.

For test [15], the system named is Macrophage cell line. The test is described as follows: Effect on lipid mediator formation in human M1-like phenotype MDM cells by measuring 4-HDHA formation at 10 uM pre-incubated for 15 mins followed by SACM stimulation and measured after 90 mins by UPLC-MS/MS analysis relative to control. The format is functional. The settings on record: time 105 min, 1.75 h.

Test [16] concerns Macrophage cell line. The test is described as follows: Effect on lipid mediator formation in human M2-like phenotype MDM cells by measuring PGF2alpha formation at 10 uM pre-incubated for 15 mins followed by SACM stimulation and measured after 90 mins by UPLC-MS/MS analysis relative to control. Format: functional. The settings on record: time 105 min, 1.75 h.
Test [17] relates to Macrophage cell line. The test is described as follows: Effect on lipid mediator formation in human M1-like phenotype MDM cells by measuring 14-HDHA formation at 10 uM pre-incubated for 15 mins followed by SACM stimulation and measured after 90 mins by UPLC-MS/MS analysis relative to control. The settings on record: time 105 min, 1.75 h. Format: functional.
In test [18] the test system is Macrophage cell line. The experiment in a line: Effect on lipid mediator formation in human M1-like phenotype MDM cells by measuring 12-HETE formation at 10 uM pre-incubated for 15 mins followed by SACM stimulation and measured after 90 mins by UPLC-MS/MS analysis (reference value: 181 +/- 39 pg/ml). Format: functional. The following applies: time 105 min, 1.75 h.

Test [19] addresses T1, Polyunsaturated fatty acid 5-lipoxygenase (Homo sapiens) (UniProt P09917).
T1 sequence (whole entry): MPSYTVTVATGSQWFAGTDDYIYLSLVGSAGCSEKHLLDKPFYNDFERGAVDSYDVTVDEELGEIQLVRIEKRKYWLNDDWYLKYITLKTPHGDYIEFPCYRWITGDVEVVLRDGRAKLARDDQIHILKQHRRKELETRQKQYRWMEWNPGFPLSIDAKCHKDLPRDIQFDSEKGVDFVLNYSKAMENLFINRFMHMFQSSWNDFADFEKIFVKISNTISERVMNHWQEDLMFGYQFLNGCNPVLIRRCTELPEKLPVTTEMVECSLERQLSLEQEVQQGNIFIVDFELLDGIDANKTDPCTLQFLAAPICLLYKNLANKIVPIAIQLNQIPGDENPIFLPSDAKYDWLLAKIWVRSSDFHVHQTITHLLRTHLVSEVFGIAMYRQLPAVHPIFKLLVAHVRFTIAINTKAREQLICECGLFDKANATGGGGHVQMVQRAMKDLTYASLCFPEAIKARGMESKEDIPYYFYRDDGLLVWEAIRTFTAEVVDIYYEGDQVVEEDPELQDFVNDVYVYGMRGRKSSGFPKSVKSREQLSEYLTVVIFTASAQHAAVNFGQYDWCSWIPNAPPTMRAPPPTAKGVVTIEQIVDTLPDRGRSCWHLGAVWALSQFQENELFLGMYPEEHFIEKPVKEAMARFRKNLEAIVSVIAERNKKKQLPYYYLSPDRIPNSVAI
The experiment in a line: Inhibition of 5-LOX in human Neutrophil at 10 uM preincubated with compound for 15 mins followed by A23187 addition measured after 10 mins by RP-HPLC analysis relative to control. Format: cell-based. The settings on record: time 25.0 min.

Structures are written as SMILES.

`Oc1ccc(CCC2CCC(c3ccc(O)cc3)CO2)cc1` (stereo not drawn): the Activity was determined as 4 pg/mL in the test with Macrophage cell line [1]; 147% in the test with Macrophage cell line [2]; 58 pg/mL in the test on Macrophage cell line [3]; 30% in the test on Macrophage cell line [4]; 97% with Macrophage cell line [5]; 364 pg/mL with Macrophage cell line [6]. Besides, the Activity came to 29 pg/mL in the test on Macrophage cell line [7]; 11 pg/mL in the test on Macrophage cell line [8]; 14% with Macrophage cell line [9]; 116% in the test on Macrophage cell line [10]; 25% in the test with Macrophage cell line [11]; 45 pg/mL in the test with Macrophage cell line [12]. Further, the Activity in the test on Macrophage cell line [13] is 61%; in the test with Macrophage cell line [14] it was 776 pg/mL; in the test with Macrophage cell line [15] it was 75%; in the test with Macrophage cell line [16] it was 80%; with Macrophage cell line [17], 89%; in the test with Macrophage cell line [18] it was 158 pg/mL. Also, the inhibition in test [19] was more than 50%.
Take `COc1ccc(C2=C/C(=C/c3ccc(O)cc3O)C(=O)O2)cc1`: the Activity with Macrophage cell line [1] was found to be 6 pg/mL; with Macrophage cell line [2], 259%; in the test on Macrophage cell line [3] it was 89 pg/mL; in the test with Macrophage cell line [4], 13%; in the test on Macrophage cell line [5], 98%; in the test with Macrophage cell line [6], 383 pg/mL. Besides, the Activity in the test with Macrophage cell line [7] was 28 pg/mL; in the test with Macrophage cell line [8] it was 12 pg/mL; with Macrophage cell line [9], 4%; with Macrophage cell line [10], 144%; with Macrophage cell line [11], 9%; in the test on Macrophage cell line [12] it was 36 pg/mL. The Activity is 39% in the test on Macrophage cell line [13]; 823 pg/mL in the test with Macrophage cell line [14]; 80% in the test with Macrophage cell line [15]; 125% in the test on Macrophage cell line [16]; 94% with Macrophage cell line [17]; 157 pg/mL with Macrophage cell line [18]. Also, the inhibition in [19] is more than 50%.
